One series has as its target human BACE1 (Homo sapiens, UniProt P56817). In words: Fluorescent kinetic assay, BACE-1 binding affinity (peptide substrate WABC-6 cleavage). Format: biochemical. As to conditions: 10 nM enzyme, 25 μM substrate WABC-6, Na-Acetate pH 4.5, room temperature. Here is the method: Evaluation of BACE-1 Binding Affinity of Test Compounds
Fluorescent Kinetic Assay
Final Assay Conditions: 10 nM human BACE1 (or 10 nM Murine BACE1), 25 μM substrate (WABC-6, MW 1549.6, from AnaSpec), Buffer: 50 mM Na-Acetate, pH 4.5, 0.05% CHAPS, 25% PBS, room temperature. Na-Acetate was from Aldrich, Cat. #24, 124-5, CHAPS was from Research Organics, Cat. #1304C 1X, PBS was from Mediatech (Cellgro), Cat#21-031-CV, peptide substrate Abz[…]pa was from AnaSpec, Peptide Name: WABC-6 Determination of stock substrate (Abz[…]pa) concentration: ˜25 mM stock solution is made in DMSO using the peptide weight and MW, and diluted to ˜25 μM (1:1000) in 1×PBS. Concentration is determined by absorbance at 354 nm using an extinction coefficient ε of 18172 M^−1cm^−1, the concentration of stock substrate is corrected, and the substrate stock stored in small aliquots in −80° C. […] Determination of Stock Enzyme Concentration: the stock concentration of each enzyme is determined by absorbance at 280 nm using ε of 64150 M^−1cm^−1 for hBACE1 and MuBACE1 in 6 M Guanidinium Hydrochloride (from Research Organics, Cat. # 5134G-2), pH ˜6. The extinction coefficient ε^280 nm for each enzyme was calculated based on known amino acid composition and published extinction coefficients for Trp ([…]) and Tyr ([…]) residues (Anal. Biochem. 182, 319-326). Dilution and mixing steps: total reaction volume: 100 μL
2× inhibitor dilutions in buffer A (66.7 mM Na-Acetate, pH 4.5, 0.0667% CHAPS) were prepared,
4× enzyme dilution in buffer A (66.7 mM Na-Acetate, pH 4.5, 0.0667% CHAPS) were prepared,
100 μM substrate dilution in 1× PBS was prepared, and
50 μL 2× Inhibitor, 25 μL 100 μM substrate are added to each well of 96-well plate (from DYNEX Technologies, VWR #: 11311-046), immediately followed by 25 μL 4× enzyme (added to the inhibitor and substrate mix), and the fluorescence readings are initiated.
Fluorescence Readings: Readings at λex 320 nm and λem 420 nm are taken every 40 sec for 30 min at room temperature and the linear slope for substrate cleavage rate (vi) determined.
Calculation of % Inhibition: % Inhibition=100*(1−vi/v0) • vi: substrate cleavage rate in the presence of inhibitor • v0: substrate cleavage rate in the absence of inhibitor • IC50 Determination: % Inhibition=((B*IC50^n)+(100*I0^n))/(IC50^n+I0^n) (Model #39 from LSW Tool Bar in Excel where B is the % inhibition from the enzyme control, which should be close to 0.) % Inhibition is plotted vs. Inhibitor Concentration (I0) and the data fit to the above equation to obtain IC50 value and Hill number (n) for each compound.

The results in this text go back to patent US7582667B2, “Dihydrospiro[dibenzo[a,d][7]annulene-5,4′-imidazol] compounds for the inhibition of beta-secretase” (Wyeth, priority 2006, dated 2009).

As a reminder, the IC50 is the concentration that inhibits the measured activity by half. A word on the melting point: it is the temperature of the solid-liquid transition.

human BACE1, sequence (P56817 46-501): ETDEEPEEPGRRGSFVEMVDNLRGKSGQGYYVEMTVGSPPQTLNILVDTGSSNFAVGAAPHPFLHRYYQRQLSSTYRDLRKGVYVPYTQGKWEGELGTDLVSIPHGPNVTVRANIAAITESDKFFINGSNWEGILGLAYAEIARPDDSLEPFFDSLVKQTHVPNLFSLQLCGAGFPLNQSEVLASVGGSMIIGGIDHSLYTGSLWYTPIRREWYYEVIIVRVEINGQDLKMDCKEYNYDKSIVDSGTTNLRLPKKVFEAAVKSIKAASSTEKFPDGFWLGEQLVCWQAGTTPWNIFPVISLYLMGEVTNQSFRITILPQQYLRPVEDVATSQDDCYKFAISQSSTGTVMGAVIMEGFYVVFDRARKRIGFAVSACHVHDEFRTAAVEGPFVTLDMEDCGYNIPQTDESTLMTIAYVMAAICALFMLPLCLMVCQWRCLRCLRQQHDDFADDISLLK

Compound `COc1ccc2c(c1C)CCc1ccc(-c3cccnc3)cc1C21N=C(N)N(C)C1=O` (stereo not shown) [Example 3, 2′-Amino-2-methoxy-1,1′-dimethyl-7-pyridin-3-yl-10,11-dihydrospiro[dibenzo[a,d][7]annulene-5,4′-imidazol]-5′(1′H)-one] had a melting point of 235 to 239 °C. This compound also yielded an IC50 on human BACE1 of 0.077 µM.
The matching figures for `COc1ccc2c(c1C)CCc1ccc(-c3cccnc3F)cc1C21N=C(N)N(C)C1=O` (stereo not shown) [Example 4, 2′-amino-7-(2-fluoropyridin-3-yl)-2-methoxy-1,1′-dimethyl-10,11-dihydrospiro[dibenzo[a,d][7]annulene-5,4′-imidazol]-5′(1′H)-one]: 153 to 155 °C and 0.063 µM.
The matching figures for `COc1ccc2c(c1C)CCc1ccc(-c3cc(F)ccc3F)cc1C21N=C(N)N(C)C1=O` (stereo not shown) [Example 7, 2′-amino-7-(2,5-difluorophenyl)-2-methoxy-1,1′-dimethyl-10,11-dihydrospiro[dibenzo[a,d][7]annulene-5,4′-imidazol]-5′(1′H)-one]: 155 to 195 °C and 0.25 µM.
At human BACE1, “2′-amino-7-(6-fluoropyridin-3-yl)-2-methoxy-1,1′-dimethyl-10,11-dihydrospiro[dibenzo[a,d][7]annulene-5,4′-imidazol]-5′(1′H)-one [Example 6]” yielded an IC50 of 0.108 µM.
Consider `COc1ccc2c(c1C)CCc1ccc(-c3cc(F)cc(F)c3)cc1C21N=C(N)N(C)C1=O` (stereo not shown) [Example 10, 2′-amino-7-(3,5-difluorophenyl)-2-methoxy-1,1′-dimethyl-10,11-dihydrospiro[dibenzo[a,d][7]annulene-5,4′-imidazol]-5′(1′H)-one], for which the melting point was 245 to 249 °C. The same compound registered an IC50 at human BACE1 of 0.376 µM.
Regarding `COc1ccc2c(c1C)CCc1ccc(-c3cccc(C#N)c3)cc1C21N=C(N)N(C)C1=O` (stereo not shown) [Example 8, 3-(2′-amino-8-methoxy-1′,9-dimethyl-5′-oxo-1′,5′, 10,11-tetrahydrospiro[dibenzo[a,d][7]annulene-5,4′-imidazol]-3-yl)benzonitrile], the melting point lay in the range of 269 to 280 °C. This compound also registered an IC50 at human BACE1 of 0.235 µM.
In turn, `COc1ccc2c(c1)CCc1ccc(-c3ccccc3)cc1C21N=C(N)N(C)C1=O` (stereo not shown) [Example 12, 2′-Amino-2-methoxy-1′-methyl-7-phenyl-10,11-dihydrospiro[dibenzo[a,d][7]annulene-5,4′-imidazol]-5′(1′H)-one] showed an IC50 at human BACE1 of 0.18 µM.
For the compound `COc1cccc(-c2ccc3c(c2)C2(N=C(N)N(C)C2=O)c2ccc(OC)c(C)c2CC3)c1` (stereo not shown) [Example 9, 2′-amino-2-methoxy-7-(3-methoxyphenyl)-1,1′-dimethyl-10,11-dihydrospiro[dibenzo[a,d][7]annulene-5,4′-imidazol]-5′(1′H)-one], at human BACE1, the IC50 was found to be 0.138 µM.
